For this series the following is noted: 298.15 K; 100 kPa; Crystal; X-ray diffraction.

± gives the expanded uncertainty stated by the source.

What is called mass density is mass per unit of volume.

For the compound `O=P([O-])([O-])[O-].O=P([O-])([O-])[O-].O=P([O-])([O-])[O-].[Ca+2].[Ca+2].[Ca+2].[Ca+2].[Ca+2].[OH-]` [hydroxyapatite], the mass density came to 3155 ± 12 kg/m3.
